Assay [1] deals with T1, SIRT2 (Homo sapiens, UniProt Q8IXJ6).
T1 sequence (Q8IXJ6 2-389): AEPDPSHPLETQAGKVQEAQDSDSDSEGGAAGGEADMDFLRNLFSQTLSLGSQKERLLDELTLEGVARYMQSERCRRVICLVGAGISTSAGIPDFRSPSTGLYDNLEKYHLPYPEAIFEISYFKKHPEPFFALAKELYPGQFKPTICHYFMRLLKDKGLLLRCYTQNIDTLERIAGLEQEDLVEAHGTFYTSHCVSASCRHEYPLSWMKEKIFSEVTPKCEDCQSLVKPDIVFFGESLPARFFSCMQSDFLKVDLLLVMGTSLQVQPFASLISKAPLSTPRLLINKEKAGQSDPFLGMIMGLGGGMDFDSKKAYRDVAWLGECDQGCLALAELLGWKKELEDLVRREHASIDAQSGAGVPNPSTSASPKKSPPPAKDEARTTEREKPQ
Nature of the assay: sirtuin deacetylase inhibition assay, % inhibition at […] ([…] at […]). The format is biochemical.

Assay [2] has as its system BT-549. Description: cells. More on the design: species or system NCI-60 human tumour cell lines; NCI-60 one-dose screen at 10 uM, percent growth inhibition versus untreated control cells. As to conditions: Homo sapiens, BT-549; growth inhibition, one dose; read-out: Growth% inhibition / 5c. On the procedure: (§1) The antiproliferative activity of the target compounds 5a–h was screened against a panel of 60 cancer cell lines according to NCI-guidelines at concentration of 10 μM. The results for each compound (Table 1) were recorded as the percent of growth inhibition of treated cells compared to untreated control cells. […] In addition, 5b recorded significant activity against leukemia cancer cell lines K-562 and MOLT-4, Non-small cell lung cancer cell lines NCI-H322M and NCI-H460, Colon cancer cell lines COLO 205, HCT-15 and HCT-116, CNS cancer cell lines SF-295 and SF-539, Melanoma cancer cell lines LOX IMVI and UACC-62, Ovarian cancer cell lines NCI/ADR-RES, OVCAR-3, and OVCAR-4, Renal cancer cell lines CAKI-1, ACHN, and UO-31, and Breast cancer MCF7 cell line with growth inhibition percentage between 80 to 95. […] The methodology of the NCI anticancer screening has been described in detail elsewhere (https://dtp.cancer.gov/).[52]

The test system of assay [3] is CCRF-CEM. Nature of the assay: cells. On the set-up: species or system NCI-60 human tumour cell lines; NCI-60 one-dose screen at 10 uM, percent growth inhibition versus untreated control cells. As to conditions: Homo sapiens, CCRF-CEM; growth inhibition, one dose; read-out: Growth% inhibition / 5c. On the procedure: as §1
Assay [4] concerns K-562. Description: cells. As to conditions: Homo sapiens, K562; growth inhibition, one dose; read-out: Growth% inhibition / 5c. On the set-up: species or system NCI-60 human tumour cell lines; NCI-60 one-dose screen at 10 uM, percent growth inhibition versus untreated control cells. The method, then:
as §1

Assay [5] relates to MCF7. Description: cells. On the set-up: species or system NCI-60 human tumour cell lines; NCI-60 one-dose screen at 10 uM, percent growth inhibition versus untreated control cells. To be noted: Homo sapiens, MCF7; growth inhibition, one dose; read-out: Growth% inhibition / 5c. The method, then: as §1
The test system of assay [6] is NCI-H226. Nature of the assay: cells. On the set-up: species or system NCI-60 human tumour cell lines; NCI-60 one-dose screen at 10 uM, percent growth inhibition versus untreated control cells. As to conditions: Homo sapiens, NCI-H226, growth inhibition, one dose. On the procedure:
as §1

Assay [7] deals with NCI-H322M. Description: cells. As to conditions: Homo sapiens, NCI-H322M; growth inhibition, one dose; read-out: Growth% inhibition / 5c. More on the design: species or system NCI-60 human tumour cell lines; NCI-60 one-dose screen at 10 uM, percent growth inhibition versus untreated control cells. The method, then: as §1
Assay [8] relates to NCI-H522. Nature of the assay: cells. To be noted: Homo sapiens, NCI-H522; growth inhibition, one dose; read-out: Growth% inhibition / 5c. More on the design: species or system NCI-60 human tumour cell lines; NCI-60 one-dose screen at 10 uM, percent growth inhibition versus untreated control cells. The method, then:
as §1

In assay [9] the test system is RPMI-8226. Description: cells. More on the design: species or system NCI-60 human tumour cell lines; NCI-60 one-dose screen at 10 uM, percent growth inhibition versus untreated control cells. To be noted: Homo sapiens, RPMI-8226; growth inhibition, one dose; read-out: Growth% inhibition / 5c. On the procedure:
as §1

In assay [10] the test system is SF-539. Description: cells. On the set-up: species or system NCI-60 human tumour cell lines; NCI-60 one-dose screen at 10 uM, percent growth inhibition versus untreated control cells. As to conditions: Homo sapiens, SF-539; growth inhibition, one dose; read-out: Growth% inhibition / 5c. On the procedure: as §1
In assay [11] the test system is T-47D. Nature of the assay: cells. More on the design: species or system NCI-60 human tumour cell lines; NCI-60 one-dose screen at 10 uM, percent growth inhibition versus untreated control cells. To be noted: Homo sapiens, T47D; growth inhibition, one dose; read-out: Growth% inhibition / 5c. The method, then: as §1
Assay [12] has as its system UACC-62. Description: cells. On the set-up: species or system NCI-60 human tumour cell lines; NCI-60 one-dose screen at 10 uM, percent growth inhibition versus untreated control cells. As to conditions: Homo sapiens, UACC-62, growth inhibition, one dose. The method, then:
as §1

Assay [13] deals with UO-31. Nature of the assay: cells. On the set-up: species or system NCI-60 human tumour cell lines; NCI-60 one-dose screen at 10 uM, percent growth inhibition versus untreated control cells. As to conditions: Homo sapiens, UO-31, growth inhibition, one dose. The method, then:
as §1

In assay [14] the target is T2, SIRT1 (Homo sapiens, UniProt Q96EB6).
T2 sequence (Q96EB6 2-747): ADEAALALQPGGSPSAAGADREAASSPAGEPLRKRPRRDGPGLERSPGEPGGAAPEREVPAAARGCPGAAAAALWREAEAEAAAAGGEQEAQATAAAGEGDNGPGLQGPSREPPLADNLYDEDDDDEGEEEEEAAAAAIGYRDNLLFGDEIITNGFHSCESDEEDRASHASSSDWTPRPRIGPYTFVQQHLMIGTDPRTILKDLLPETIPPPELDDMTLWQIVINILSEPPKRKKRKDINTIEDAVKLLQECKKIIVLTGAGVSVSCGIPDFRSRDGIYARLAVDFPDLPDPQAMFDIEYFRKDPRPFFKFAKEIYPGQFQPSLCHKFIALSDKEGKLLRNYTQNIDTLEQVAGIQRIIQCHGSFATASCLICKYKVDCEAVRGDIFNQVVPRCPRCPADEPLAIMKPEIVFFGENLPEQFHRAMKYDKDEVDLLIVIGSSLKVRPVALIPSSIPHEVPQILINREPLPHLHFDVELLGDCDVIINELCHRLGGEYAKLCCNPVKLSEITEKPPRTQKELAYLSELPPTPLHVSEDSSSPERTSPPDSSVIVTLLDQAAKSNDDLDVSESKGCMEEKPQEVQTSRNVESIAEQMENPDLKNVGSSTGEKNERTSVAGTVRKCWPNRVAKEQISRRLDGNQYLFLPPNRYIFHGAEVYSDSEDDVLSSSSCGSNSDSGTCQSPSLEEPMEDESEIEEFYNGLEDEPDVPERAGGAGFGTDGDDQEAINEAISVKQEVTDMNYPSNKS
Description: biochemical. More on the design: Sirtuin-TK assay, percent inhibition of human SIRT1 or SIRT2 at 5 and 50 uM. The method, then: (§2) Sirtuin-TK assay was performed to estimate the Sirtuins inhibitory potential of 5a–h (Tables 2 and 3). The results of this test strongly complemented the findings of cancer cell-based assessments. […] Of the 8 compounds evaluated, 3 analogs (5b, 5e and 5h) were more likely to inhibit Sirt2 (>70% inhibition) than Sirt1 (<50% inhibition) at 50 μM. The other compounds were poor inhibitors of both enzymes. […] 4.2.2. Sirtuin inhibitory assay

In assay [15] the target is T1, SIRT2. Description: biochemical. More on the design: Sirtuin-TK assay, percent inhibition of human SIRT1 or SIRT2 at 5 and 50 uM. On the procedure: as §2
The target in assay [16] is T1, SIRT2. Description: sirtuin deacetylase inhibition assay, % inhibition at […] ([…] at […]). Format: biochemical. The source holds these as a separate data set.
Assay [17] relates to CAKI-1. Description: cells. To be noted: Homo sapiens, CAKI-1; growth inhibition, one dose; read-out: Growth% inhibition / 5f. More on the design: species or system NCI-60 human tumour cell lines; NCI-60 one-dose screen at 10 uM, percent growth inhibition versus untreated control cells. On the procedure: as §1
Assay [18] deals with HOP-92. Nature of the assay: cells. On the set-up: species or system NCI-60 human tumour cell lines; NCI-60 one-dose screen at 10 uM, percent growth inhibition versus untreated control cells. As to conditions: Homo sapiens, HOP-92; growth inhibition, one dose; read-out: Growth% inhibition / 5f. The method, then:
as §1

The test system of assay [19] is IGROV1. Description: cells. As to conditions: Homo sapiens, IGROV-1, growth inhibition, one dose. On the set-up: species or system NCI-60 human tumour cell lines; NCI-60 one-dose screen at 10 uM, percent growth inhibition versus untreated control cells. On the procedure:
as §1

Assay [20] deals with SNB-75. Nature of the assay: cells. On the set-up: species or system NCI-60 human tumour cell lines; NCI-60 one-dose screen at 10 uM, percent growth inhibition versus untreated control cells. To be noted: Homo sapiens, SNB-75, growth inhibition, one dose. On the procedure:
as §1

The subject of assay [21] is SR. Nature of the assay: cells. On the set-up: species or system NCI-60 human tumour cell lines; NCI-60 one-dose screen at 10 uM, percent growth inhibition versus untreated control cells. As to conditions: Homo sapiens, SR; growth inhibition, one dose; read-out: Growth% inhibition / 5f. The method, then: as §1
Assay [22] addresses T1, SIRT2. Nature of the assay: sirtuin deacetylase inhibition assay, % inhibition at […] ([…] at […]). The format is biochemical. The source holds these as a separate data set.
Assay [23] has as its system LOX IMVI. Nature of the assay: cells. On the set-up: species or system NCI-60 human tumour cell lines; NCI-60 one-dose screen at 10 uM, percent growth inhibition versus untreated control cells. As to conditions: Homo sapiens, LOX IMVI; growth inhibition, one dose; read-out: Growth% inhibition / 5g. On the procedure: as §1
Setting [24] is: read-out: Growth% inhibition / 5c.
The mark [25] stands for this setting: read-out: Growth% inhibition / 5f.
[26] abbreviates: read-out: Growth% inhibition / 5g.

The values below come from publication PMC9037111, “Structure-based design, synthesis, and biological evaluation of novel piperine–resveratrol hybrids as antiproliferative agents targeting SIRT-2” (RSC Advances, 2021).

Where two headings read alike, the source gives them in different places.

With `COc1cc(C=NNC(=O)/C=C/C=C/c2ccc3c(c2)OCO3)ccc1O` [5c, (2E,4E)-5-(Benzo[d][1,3]dioxol-5-yl)-N′-((E,Z)-4-hydroxy-3-methoxybenzylidene)penta-2,4-dienehydrazide], the inhibition at 50 µM stood at 58 ± 3% in assay [1] and 38 ± 3% in assay [14]. The inhibition at 10 µM in assay [2] turned out to be 13.6%; in assay [3], 12.1%; in assay [4], 10.5%; in assay [5], 20.1%; in assay [6] (setting [24]), 18.3%; in assay [7], 14.7%. The inhibition at 10 µM in assay [8] worked out at 22%; in assay [9], 15.3%; in [10], 15.3%; in [11] it was 19.8%; in assay [12] (setting [24]) it was 11.3%; in [13] (setting [24]) it was 14%. The results for the inhibition at 5 µM in assay [14] and in [15] were 12 ± 1% and 17 ± 3%, respectively.

Regarding `O=C(/C=C/C=C/c1ccc2c(c1)OCO2)NN=C(c1ccc(F)cc1)c1ccc(F)cc1` [5f, (2E,4E)-5-(Benzo[d][1,3]dioxol-5-yl)-N′-(bis(4-fluorophenyl)methylene)penta-2,4-dienehydrazide], the figures for the inhibition at 50 µM in [16] and in [14] were 69 ± 3% and 39 ± 3%, respectively. In addition, the inhibition at 10 µM worked out at 12.8% in [17]; 13.8% in [18]; 12.1% in assay [19] (setting [25]); 16.6% in assay [20] (setting [25]); 36.3% in assay [21]; 12.2% in [12] (setting [25]). Besides, the inhibition at 10 µM in assay [13] (setting [25]) was 18.3%. Further, the inhibition at 5 µM in [14] was 14 ± 4%; in assay [15], 20 ± 4%.

On to `CC(C)(C)c1cc(/C=N/NC(=O)/C=C/C=C/c2ccc3c(c2)OCO3)c(O)c(C(C)(C)C)c1` [5g, (2E,4E)-5-(Benzo[d][1,3]dioxol-5-yl)-N′-((E)-3,5-di-tert-butyl-2-hydroxy-benzylidene)penta-2,4-dienehydrazide], for which the inhibition at 50 µM was found to be 55 ± 1% in assay [22] and 35 ± 1% in assay [14]. Besides, the inhibition at 10 µM in [19] (setting [26]) came out at 14.1%; in [23], 12.1%; in assay [6] (setting [26]), 10.1%; in assay [20] (setting [26]), 33%; in assay [13] (setting [26]), 27.9%. Moreover, the inhibition at 5 µM in assay [14] turned out to be 9 ± 2%; in [15], 19 ± 2%.
